Source: patent publication US8952024B2, “Herbicidal pyrimidone derivatives” (E I du Pont de Nemours and Company, priority 2009, dated 2015)
Read-outs that look alike come from different tables or passages of the source.

Tests used:
Assay in all cases: Test B pre-/postemergence plant response
Type in all cases: in vivo
[1] = system: downy bromegrass (Bromus tectorum); conditions: for pest or weed control at 31 g/ha: 31 g ai/ha; for pest or weed control at 125 g/ha: 125 g ai/ha
Method in brief: (§1)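 Compound in solvent + surfactant applied pre-em (loam/sand) or post-em (plants 2–18 cm, peat medium); greenhouse hold 13–15 days; visual 0–100 control score.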

[2] = system: kochia (Kochia scoparia); conditions: for pest or weed control at 31 g/ha: 31 g ai/ha; for pest or weed control at 125 g/ha: 125 g ai/ha
Method in brief: as §1

[3] = system: giant foxtail (Setaria faberii); conditions: for pest or weed control at 31 g/ha: 31 g ai/ha; for pest or weed control at 125 g/ha: 125 g ai/ha
Method in brief: as §1

[4] = system: morningglory (Ipomoea coccinea)
Method in brief: as §1

[5] = system: corn (Zea mays); conditions: for Corn plant response rating (crop injury, 0 = no effect, 100 = complete kill) at 31 g/ha: 31 g ai/ha; for Corn plant response rating (crop injury, 0 = no effect, 100 = complete kill) at 125 g/ha: 125 g ai/ha
Method in brief: as §1

[6] = system: cocklebur (Xanthium strumarium); conditions: for pest or weed control at 31 g/ha: 31 g ai/ha; for pest or weed control at 125 g/ha: 125 g ai/ha
Method in brief: as §1

[7] = system: goosegrass (Eleusine indica); conditions: for pest or weed control at 31 g/ha: 31 g ai/ha; for pest or weed control at 125 g/ha: 125 g ai/ha
Method in brief: as §1

[8] = system: woolly cupgrass (Eriochloa villosa); conditions: for pest or weed control at 31 g/ha: 31 g ai/ha; for pest or weed control at 125 g/ha: 125 g ai/ha
Method in brief: as §1

[9] = system: johnsongrass (Sorghum halepense)
Method in brief: as §1

[10] = 62 g ai/ha, postemergence, 0 is no effect, 100 is complete control, 13 to 15 days
[11] = Preemergence, 250 g ai/ha, 0 to 100 scale

O=C1CCCC(O)=C1C(=O)c1cnc(-c2cccnc2)n(-c2ccccc2)c1=O [Compound 113, 5-[(2-hydroxy-6-oxo-1-cyclohexen-1-yl)carbonyl]-3-phenyl-2-(3-pyridinyl)-4(3H)-pyrimidone]
Bromegrass, Downy plant response rating (0 to 100 scale) [1, 10]: 60
pest or weed control at 31 g/ha ([1]; Bromus tectorum, post-emergence, postemergence, scale 0 to 100, 0 is no effect, 100 is complete control, read-out: Plant response rating, Bromegrass, Downy): 5%
pest or weed control at 125 g/ha ([1]; Bromus tectorum, post-emergence, Postemergence, scale 0 to 100 (0 no effect, 100 complete control), read-out: Plant response rating, Bromegrass, Downy): 80%
pest or weed control at 250 g/ha ([1]; Bromus tectorum, post-emergence, Postemergence, 250 g ai/ha, scale 0 to 100 (0 no effect, 100 complete control), read-out: Plant response rating, Bromegrass, Downy): 90%
pest or weed control at 31 g/ha ([1]; Bromus tectorum, pre-emergence, Preemergence, scale 0 to 100 (0 no effect, 100 complete control), read-out: Plant response rating, Bromegrass, Downy): 0%
pest or weed control at 62 g/ha ([1]; Bromus tectorum, pre-emergence, Preemergence, 62 g ai/ha, scale 0 to 100, 0 no effect, 100 complete control, read-out: Plant response rating, Bromegrass, Downy): 10%
pest or weed control at 125 g/ha ([1]; Bromus tectorum, pre-emergence, Preemergence, scale 0 to 100, 0 no effect, 100 complete control, read-out: Plant response rating, Bromegrass, Downy): 10%
Bromegrass, Downy plant response rating [1, 11]: 10
Kochia plant response rating (0 to 100 scale) [2, 10]: 100
pest or weed control at 31 g/ha ([2]; Bassia scoparia, post-emergence, postemergence, scale 0 to 100, 0 is no effect, 100 is complete control, read-out: Plant response rating, Kochia): 98%
pest or weed control at 125 g/ha ([2]; Bassia scoparia, post-emergence, Postemergence, scale 0 to 100 (0 no effect, 100 complete control), read-out: Plant response rating, Kochia): 100%
pest or weed control at 250 g/ha ([2]; Bassia scoparia, post-emergence, Postemergence, 250 g ai/ha, scale 0 to 100 (0 no effect, 100 complete control), read-out: Plant response rating, Kochia): 100%
pest or weed control at 31 g/ha ([2]; Bassia scoparia, pre-emergence, Preemergence, scale 0 to 100 (0 no effect, 100 complete control), read-out: Plant response rating, Kochia): 80%
pest or weed control at 62 g/ha ([2]; Bassia scoparia, pre-emergence, Preemergence, 62 g ai/ha, scale 0 to 100 (0 no effect, 100 complete control), read-out: Plant response rating, Kochia): 80%
pest or weed control at 125 g/ha ([2]; Bassia scoparia, pre-emergence, Preemergence, scale 0 to 100, 0 no effect, 100 complete control, read-out: Plant response rating, Kochia): 85%
Kochia plant response rating [2, 11]: 90
Foxtail, Giant plant response rating (0 to 100 scale) [3, 10]: 85
Foxtail, Giant plant response rating [3, 11]: 85
pest or weed control at 31 g/ha ([3]; Setaria faberi, post-emergence, postemergence, scale 0 to 100, 0 is no effect, 100 is complete control, read-out: Plant response rating, Foxtail, Giant): 80%
pest or weed control at 125 g/ha ([3]; Setaria faberi, post-emergence, Postemergence, scale 0 to 100 (0 no effect, 100 complete control), read-out: Plant response rating, Foxtail, Giant): 90%
pest or weed control at 250 g/ha ([3]; Setaria faberi, post-emergence, Postemergence, 250 g ai/ha, scale 0 to 100 (0 no effect, 100 complete control), read-out: Plant response rating, Foxtail, Giant): 95%
pest or weed control at 31 g/ha ([3]; Setaria faberi, pre-emergence, Preemergence, scale 0 to 100 (0 no effect, 100 complete control), read-out: Plant response rating, Foxtail, Giant): 5%
pest or weed control at 62 g/ha ([3]; Setaria faberi, pre-emergence, Preemergence, 62 g ai/ha, scale 0 to 100, 0 no effect, 100 complete control, read-out: Plant response rating, Foxtail, Giant): 40%
pest or weed control at 125 g/ha ([3]; Setaria faberi, pre-emergence, Preemergence, scale 0 to 100, 0 no effect, 100 complete control, read-out: Plant response rating, Foxtail, Giant): 60%
Morningglory plant response rating (0 to 100 scale) [4, 10]: 100
pest or weed control at 31 g/ha ([4]; Ipomoea, post-emergence, 31 g ai/ha, postemergence, scale 0 to 100, 0 is no effect, 100 is complete control, read-out: Plant response rating, Morningglory): 98%
pest or weed control at 125 g/ha ([4]; Ipomoea, post-emergence, Postemergence, 125 g ai/ha, scale 0 to 100 (0 no effect, 100 complete control), read-out: Plant response rating, Morningglory): 100%
pest or weed control at 250 g/ha ([4]; Ipomoea, post-emergence, Postemergence, 250 g ai/ha, scale 0 to 100 (0 no effect, 100 complete control), read-out: Plant response rating, Morningglory): 100%
Corn plant response rating (0 to 100 scale) [5, 10]: 60
Corn plant response rating [5, 11]: 0
Corn plant response rating (crop injury, 0 = no effect, 100 = complete kill) at 31 g/ha ([5]; Zea mays, post-emergence, postemergence, scale 0 to 100, 0 is no effect, 100 is complete control): 25%
Corn plant response rating (crop injury, 0 = no effect, 100 = complete kill) at 125 g/ha ([5]; Zea mays, post-emergence, Postemergence, scale 0 to 100 (0 no effect, 100 complete control)): 80%
Corn plant response rating (crop injury, 0 = no effect, 100 = complete kill) at 250 g/ha ([5]; Zea mays, post-emergence, Postemergence, 250 g ai/ha, scale 0 to 100 (0 no effect, 100 complete control)): 85%
Corn plant response rating (crop injury, 0 = no effect, 100 = complete kill) at 31 g/ha ([5]; Zea mays, pre-emergence, Preemergence, scale 0 to 100 (0 no effect, 100 complete control)): 0%
Corn plant response rating (crop injury, 0 = no effect, 100 = complete kill) at 62 g/ha ([5]; Zea mays, pre-emergence, Preemergence, 62 g ai/ha, scale 0 to 100, 0 no effect, 100 complete control): 0%
Corn plant response rating (crop injury, 0 = no effect, 100 = complete kill) at 125 g/ha ([5]; Zea mays, pre-emergence, Preemergence, scale 0 to 100, 0 no effect, 100 complete control): 0%
Cocklebur plant response rating (0 to 100 scale) [6, 10]: 95
Cocklebur plant response rating [6, 11]: 100
pest or weed control at 31 g/ha ([6]; Xanthium strumarium, post-emergence, postemergence, scale 0 to 100, 0 is no effect, 100 is complete control, read-out: Plant response rating, Cocklebur): 95%
pest or weed control at 125 g/ha ([6]; Xanthium strumarium, post-emergence, Postemergence, scale 0 to 100 (0 no effect, 100 complete control), read-out: Plant response rating, Cocklebur): 98%
pest or weed control at 250 g/ha ([6]; Xanthium strumarium, post-emergence, Postemergence, 250 g ai/ha, scale 0 to 100 (0 no effect, 100 complete control), read-out: Plant response rating, Cocklebur): 98%
pest or weed control at 31 g/ha ([6]; Xanthium strumarium, pre-emergence, Preemergence, scale 0 to 100 (0 no effect, 100 complete control), read-out: Plant response rating, Cocklebur): 45%
pest or weed control at 62 g/ha ([6]; Xanthium strumarium, pre-emergence, Preemergence, 62 g ai/ha, scale 0 to 100, 0 no effect, 100 complete control, read-out: Plant response rating, Cocklebur): 75%
pest or weed control at 125 g/ha ([6]; Xanthium strumarium, pre-emergence, Preemergence, scale 0 to 100, 0 no effect, 100 complete control, read-out: Plant response rating, Cocklebur): 90%
Goosegrass plant response rating (0 to 100 scale) [7, 10]: 75
pest or weed control at 31 g/ha ([7]; Eleusine indica, post-emergence, postemergence, scale 0 to 100, 0 is no effect, 100 is complete control, read-out: Plant response rating, Goosegrass): 70%
pest or weed control at 125 g/ha ([7]; Eleusine indica, post-emergence, Postemergence, scale 0 to 100 (0 no effect, 100 complete control), read-out: Plant response rating, Goosegrass): 85%
pest or weed control at 250 g/ha ([7]; Eleusine indica, post-emergence, Postemergence, 250 g ai/ha, scale 0 to 100 (0 no effect, 100 complete control), read-out: Plant response rating, Goosegrass): 90%
pest or weed control at 31 g/ha ([7]; Eleusine indica, pre-emergence, Preemergence, scale 0 to 100 (0 no effect, 100 complete control), read-out: Plant response rating, Goosegrass): 75%
pest or weed control at 62 g/ha ([7]; Eleusine indica, pre-emergence, Preemergence, 62 g ai/ha, scale 0 to 100, 0 no effect, 100 complete control, read-out: Plant response rating, Goosegrass): 90%
pest or weed control at 125 g/ha ([7]; Eleusine indica, pre-emergence, Preemergence, scale 0 to 100, 0 no effect, 100 complete control, read-out: Plant response rating, Goosegrass): 100%
Goosegrass plant response rating [7, 11]: 100
Cupgrass, Woolly plant response rating (0 to 100 scale) [8, 10]: 85
pest or weed control at 31 g/ha ([8]; Eriochloa villosa, post-emergence, postemergence, scale 0 to 100, 0 is no effect, 100 is complete control, read-out: Plant response rating, Cupgrass, Woolly): 85%
pest or weed control at 125 g/ha ([8]; Eriochloa villosa, post-emergence, Postemergence, scale 0 to 100 (0 no effect, 100 complete control), read-out: Plant response rating, Cupgrass, Woolly): 95%
pest or weed control at 250 g/ha ([8]; Eriochloa villosa, post-emergence, Postemergence, 250 g ai/ha, scale 0 to 100 (0 no effect, 100 complete control), read-out: Plant response rating, Cupgrass, Woolly): 95%
pest or weed control at 31 g/ha ([8]; Eriochloa villosa, pre-emergence, Preemergence, scale 0 to 100 (0 no effect, 100 complete control), read-out: Plant response rating, Cupgrass, Woolly): 5%
pest or weed control at 62 g/ha ([8]; Eriochloa villosa, pre-emergence, Preemergence, 62 g ai/ha, scale 0 to 100, 0 no effect, 100 complete control, read-out: Plant response rating, Cupgrass, Woolly): 50%
pest or weed control at 125 g/ha ([8]; Eriochloa villosa, pre-emergence, Preemergence, scale 0 to 100, 0 no effect, 100 complete control, read-out: Plant response rating, Cupgrass, Woolly): 85%
Cupgrass, Woolly plant response rating [8, 11]: 95
Johnsongrass plant response rating (0 to 100 scale) [9, 10]: 85
Johnsongrass plant response rating [9, 11]: 70
pest or weed control at 31 g/ha ([9]; Sorghum halepense, post-emergence, 31 g ai/ha, postemergence, scale 0 to 100, 0 is no effect, 100 is complete control, read-out: Plant response rating, Johnsongrass): 65%
pest or weed control at 125 g/ha ([9]; Sorghum halepense, post-emergence, Postemergence, 125 g ai/ha, scale 0 to 100 (0 no effect, 100 complete control), read-out: Plant response rating, Johnsongrass): 90%
